Read-outs that look alike come from different tables or passages of the source.
How the values were obtained:
potassium channel Kv1.5 [1] = target: T1, potassium channel Kv1.5 (Homo sapiens, UniProt P22460); assay: Kv1.5 ion channel inhibitory experiment (whole-cell patch clamp, CHO cells); format: cell-based
T1 construct: expressed in transfected cells; host or cells: Chinese hamster ovary (CHO) cells
Description: Cell preparation: the day before the experiment, digestion of Chinese hamster ovary (CHO) cells (Sigma Chemical Co., St. Louis, MO, USA) with a density of 60–80% by trypsin, and split into some small glass plates, which placed in 35 mm petri dish, then added 10% fetal bovine serum (FBS) (Gibco, CA, USA), and Dulbecco’s modified eagle medium (DMEM) (HyClone, Logan, UT, USA) culture medium without P/S was cultured overnight in an incubator [35, 36, 37] (Supplementary Materials 1.3.1).
Electrophysiology: the cells were transferred to a perfusion tank and perfused with extracellular fluid. The intracellular fluid (mM) was: K Aspartate, 130; MgCl2, 5; EGTA 5; HEPES, 10; Tris-ATP 4; pH 7.2 (KOH titration). The intracellular fluid was stored in small portions in a refrigerator at −80 °C and thawed on the day of the experiment. The electrodes were filled with intracellular fluid and drawn with PC-10 (Narishige, Japan). Whole-cell patch-clamp recording, noise is filtered using one-fifth of the sampling frequency. The cells were clamped at −80 mV and then depolarized to 20 mV with a square wave lasting 2 s to obtain Kv1.5 current. This procedure is repeated every 20 s. After it was stabilized, compound 1, compound 2, and acacetin were perfused, and when the reaction was stabilized, the strength of the blocking was calculated (Supplementary Materials 1.3.1). […]
detection at 190 nm) to afford twenty‐one subfractions (F.D.1‐21). […]
Electrophysiology. […] After it was stabilized, compound 1, compound 2, and acacetin were perfused, and when the reaction was stabilized, the strength of the blocking was calculated.
Data analysis and statistics. […] The IC50 value was determined by fitting the data points to the equation. […]
Figure S1.3.1.1. (A) Kv1.5 traces elicited by 5 s pulses from −80 to + 20 mV and tail currents recorded at −80 mV in the absence and presence of 0.1 μM, 0.3 μM, 1 μM, 3 μM, 10 μM, and 30 μM neo‐ […]

Artemia salina = assay: Brine shrimp toxicity (lethality) assay; format: in vivo; conditions: 24 h; for survival at 0.1 µM / survival at 1 µM / survival at 10 µM / survival at 30 µM: Artemia salina, read-out: Percentage of Survival of Artemia salina after 24 h
Description: The lethality assay of brine shrimp A. salina was developed by Vanhaecke et al.. […] Commercially available A. salina or brine shrimp cysts were purchased and cultivated in 3.2% of saline water. Before cultivation, the saline was aerated, and then cysts were kept at room temperature for 24 h. For toxicity screening, hatched larvae were collected and introduced in saline water. Add 0.9% saline water and approximately the same number of larvae 30 per well to make a 96-wells test culture plate. ATXs with 0.1 μM, 1 μM, 10 μM, 30 μM were added to the test culture plate, while the equal volume of dimethyl sulfoxide (DMSO) (Aladdin, Shanghai, China) and dichloromethane (Aladdin, Shanghai, China) were added as blank control test and positive control separately. After 24 h at 25 °C, the percent of survival of A. salina was calculated (Supplementary Materials 1.3.2).
Figure S1.3.1.2. […]
Figure S1.3.1.3. […]
1.3.2. Brine Shrimp Cytotoxicity Assay
Commercially available Artemia salina (A. salina) or brine shrimp cysts were purchased and cultivated in 3.2% of saline water. Before cultivation, the saline was aerated, and then cysts were kept at room temperature for 24 h. For toxicity screenin g, hatched larvae were collected and introduced in saline water. Add saline water and equivalent larvae in per well of 96 wells to make test culture plate.
Aplysiatoxins with 0.1 μM, 1 μM, 10 μM, 30 μM was added to test culture plate, while DMSO and dichloromethane were added as blank control test and positive control separately. After 24 h in 25 °C, the percent of survival of A. salina was calculated. […]

potassium channel Kv1.5 [2] = target: T1, potassium channel Kv1.5; conditions: read-out: IC50, inhibitory activity against Kv1.5, cited from earlier work
protein kinase C (PKC) = conditions: ref [20],[21],[34]; cited from earlier work

T1 sequence (P22460 whole entry): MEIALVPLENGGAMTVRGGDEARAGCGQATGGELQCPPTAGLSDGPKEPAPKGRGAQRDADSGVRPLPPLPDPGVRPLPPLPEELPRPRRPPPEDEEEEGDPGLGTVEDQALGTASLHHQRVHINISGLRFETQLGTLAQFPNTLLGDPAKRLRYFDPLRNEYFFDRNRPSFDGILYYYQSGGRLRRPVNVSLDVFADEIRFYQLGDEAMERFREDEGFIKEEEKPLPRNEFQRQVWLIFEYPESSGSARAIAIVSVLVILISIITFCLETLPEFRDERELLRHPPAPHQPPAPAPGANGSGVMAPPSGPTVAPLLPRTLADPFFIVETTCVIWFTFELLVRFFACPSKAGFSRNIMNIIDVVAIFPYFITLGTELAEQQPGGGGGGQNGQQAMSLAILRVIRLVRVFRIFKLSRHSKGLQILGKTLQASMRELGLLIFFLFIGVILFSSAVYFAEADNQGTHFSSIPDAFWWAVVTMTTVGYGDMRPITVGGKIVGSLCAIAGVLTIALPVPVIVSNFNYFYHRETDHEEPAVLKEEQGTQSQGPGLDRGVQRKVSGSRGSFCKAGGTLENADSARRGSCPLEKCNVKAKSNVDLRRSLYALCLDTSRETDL

COC(CCC(C)C1OC23CC(OC(=O)CC(C(C)O)OC(=O)CC4(CC2(C)CC4(C)O)O3)C1C)c1cccc(O)c1 (centres unmarked) [Compound 1, neo-debromoaplysiatoxin G]
IC50 (potassium channel Kv1.5 [1]): 1.79 ± 0.22 µM
effect on survival of A. salina (in words) (Artemia salina; 30 µM): no apparent effect
survival at 0.1 µM (Artemia salina): 98 ± 3.4%
survival at 1 µM (Artemia salina): 92.6 ± 1.54%
survival at 10 µM (Artemia salina): 92.4 ± 4.71%
survival at 30 µM (Artemia salina): 91.8 ± 7.73%

COC(CCC(C)C1OC23CC(OC(=O)CC(C(C)O)OC(=O)CC(OC)(O2)C(C)CC3(C)C)C1C)c1cccc(O)c1 (centres unmarked) [3-OCH3 DAT, 3-methoxydebromoaplysaitoxin]
concentration at which survival of A. salina began to be influenced (Artemia salina): 10 µM
survival at 0.1 µM (Artemia salina): 94.5 ± 1.87%
survival at 1 µM (Artemia salina): 85.8 ± 6.3%
survival at 10 µM (Artemia salina): 0%
survival at 30 µM (Artemia salina): 0%

CO[C@@H](CC[C@H](C)[C@H]1O[C@@]23C[C@H](OC(=O)C[C@H]([C@@H](C)O)OC(=O)C[C@](O)(O2)[C@H](C)CC3(C)C)[C@@H]1C)c1cccc(O)c1 [DAT, debromoaplysiatoxin]
concentration at which survival of A. salina began to be influenced (Artemia salina): 0.1 µM
survival at 0.1 µM (Artemia salina; 0.1 µM): 70.9 ± 6.3%
survival at 1 µM (Artemia salina; 1 µM): 0%
survival at 10 µM (Artemia salina; 10 µM): 0%
survival at 30 µM (Artemia salina; 30 µM): 0%
IC50 (potassium channel Kv1.5 [2]; ref [33]): 1.28 ± 0.08 µM
PKC activation (in words) (protein kinase C (PKC)): strong PKC activation

COC(CCC(C)C1OC2(C=CC1C)OC(C)(C(=O)CC(=O)OC1CC(=O)OC1C)CC2(C)C)c1cccc(O)c1 (centres unmarked) [Compound 2, neo-debromoaplysiatoxin H]
IC50 (potassium channel Kv1.5 [1]): 1.46 ± 0.14 µM
effect on survival of A. salina (in words) (Artemia salina; 30 µM): no apparent effect
survival at 0.1 µM (Artemia salina): 97.3 ± 2.38%
survival at 1 µM (Artemia salina): 98.9 ± 1.93%
survival at 10 µM (Artemia salina): 97.3 ± 4.62%
survival at 30 µM (Artemia salina): 95.5 ± 1.93%

COC(CCC(C)C1OC23CC(OC(=O)CC(C(C)O)OC(=O)CC(=C(C)CC2(C)C)O3)C1C)c1cccc(O)c1 (centres unmarked) [Anhydro DAT, anhydrodebromoaplysiatoxin]
concentration at which survival of A. salina began to be influenced (Artemia salina): 10 µM
survival at 0.1 µM (Artemia salina): 94 ± 3.46%
survival at 1 µM (Artemia salina): 91.3 ± 6.94%
survival at 10 µM (Artemia salina): 0%
survival at 30 µM (Artemia salina): 0%

CO[C@@H](CC[C@H](C)[C@H]1O[C@@]23C[C@H](OC(=O)C2=C(O)[C@H](C)CC3(C)C)[C@@H]1C)c1cccc(O)c1 [NEO-B, neo-debromoaplysiatoxin B]
IC50 (potassium channel Kv1.5 [2]; ref [20],[21],[33]): 0.3 ± 0.05 µM

oscillatoxin E [OAT E]
IC50 (potassium channel Kv1.5 [2]; ref [33]): 0.79 ± 0.03 µM

COC(CCC(C)C1OC(=O)C(C)(C)CC(C)=C(CC(=O)OC2CC(=O)OC2C)C(=O)CC1C)c1cccc(O)c1 (centres unmarked) [NEO-C, neo-debromoaplysiatoxin C]
survival at 0.1 µM (Artemia salina): 98.7 ± 2.31%
survival at 1 µM (Artemia salina): 99 ± 1.65%
survival at 10 µM (Artemia salina): 98.9 ± 1.92%
survival at 30 µM (Artemia salina): 94.9 ± 5.27%

COC(CCC(C)C1OC2(C=CC1C)CC(=O)C(C)CC2(C)C)c1cccc(O)c1 (centres unmarked) [OAT F, osciliatoxin F]
effect on survival of A. salina (in words) (Artemia salina; 30 µM): no apparent effect
survival at 0.1 µM (Artemia salina): 97.5 ± 2.2%
survival at 1 µM (Artemia salina): 98.8 ± 1.99%
survival at 10 µM (Artemia salina): 95.3 ± 1.92%
survival at 30 µM (Artemia salina): 85.5 ± 2.91%

COc1ccc(-c2cc(=O)c3c(O)cc(O)cc3o2)cc1 [acacetin]
IC50 (potassium channel Kv1.5 [1]; Kv1.5 expression in CHO cells, holding potential −80 mV, mean ± SEM of 3 to 5 measurements, Hill fit, read-out: IC50, inhibitory effect on Kv1.5 current): 5.96 ± 0.56 µM

— article PMC7700248, “Chemical and Biological Study of Novel Aplysiatoxin Derivatives from the Marine Cyanobacterium Lyngbya sp” (Toxins, 2020)
